Measured values from ChEMBL document CHEMBL3886639, “2,5-disubstituted-pyridyl nicotinic ligands, and methods of use thereof” (2016).

Test: [3H]-Epibatidine Radioligand Binding Assay: Briefly, cultured cells at >80% confluence were removed from their flasks (80 cm^2) with a disposable cell scraper and placed in 10 mL of 50 mM Tris.HCl buffer (pH 7.4, 4 °C.). The cell suspension was centrifuged at 10,000×g for 5 min and the pellet was collected. The cell pellet was then homogenized in 10 mL buffer with a polytron homogenizer and centrifuged at 36,000 g for 10 min at 4 °C. The membrane pellet was resuspended in fresh buffer, and aliquots of the membrane preparation were used for binding assays. The concentration of [3H]-epibatidine used was ~500 pM for competition binding assays. […] Bound and free ligands were separated by vacuum filtration through Whatman GF/C filters treated with 0.5% polyethylenimine. The filter-retained radioactivity was measured by liquid scintillation counting. Specific binding was defined as the difference between total binding and nonspecific binding. Data from competition binding assays were analyzed using Prism 5 (GraphPad Software, San Diego, Calif.).

CCCCC#Cc1cnc(C(F)(F)F)c(OC[C@@H]2CCN2)c1
Ki: > 100 µM
